Measurements: paper PMC10669046, “Probing the Proton-Gated ASIC Channels Using Tetraalkylammonium Ions” (Biomolecules, 2023)

Assays:
ASIC3 = molecular target: T1, ASIC3 (Rattus norvegicus, UniProt O35240); test: cell-based; conditions: CHO, read-out: whole-cell patch clamp in transfected CHO cells; potentiation of the sustained c
T1 sequence (O35240 1-533): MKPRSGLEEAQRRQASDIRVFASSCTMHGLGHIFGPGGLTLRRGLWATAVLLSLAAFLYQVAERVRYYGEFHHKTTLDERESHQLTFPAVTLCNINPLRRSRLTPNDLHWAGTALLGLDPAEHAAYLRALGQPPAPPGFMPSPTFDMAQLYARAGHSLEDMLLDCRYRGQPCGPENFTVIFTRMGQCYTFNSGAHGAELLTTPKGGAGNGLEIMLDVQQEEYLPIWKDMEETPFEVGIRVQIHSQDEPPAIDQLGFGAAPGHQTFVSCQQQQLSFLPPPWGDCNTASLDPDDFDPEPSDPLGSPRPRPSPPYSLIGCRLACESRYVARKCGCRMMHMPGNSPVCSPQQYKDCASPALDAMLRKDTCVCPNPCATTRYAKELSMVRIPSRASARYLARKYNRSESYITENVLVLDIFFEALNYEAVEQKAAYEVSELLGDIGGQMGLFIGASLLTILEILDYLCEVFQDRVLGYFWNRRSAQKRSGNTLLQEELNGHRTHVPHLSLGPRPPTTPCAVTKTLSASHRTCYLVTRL

ASIC1a [1] = molecular target: T2, ASIC1a (Rattus norvegicus, UniProt P55926); test: cell-based; conditions: CHO, read-out: whole-cell patch clamp in transfected CHO cells; 10 mM, voltage-dependent inhibi
T2 construct: gene Asic1
T2 sequence (P55926 1-526): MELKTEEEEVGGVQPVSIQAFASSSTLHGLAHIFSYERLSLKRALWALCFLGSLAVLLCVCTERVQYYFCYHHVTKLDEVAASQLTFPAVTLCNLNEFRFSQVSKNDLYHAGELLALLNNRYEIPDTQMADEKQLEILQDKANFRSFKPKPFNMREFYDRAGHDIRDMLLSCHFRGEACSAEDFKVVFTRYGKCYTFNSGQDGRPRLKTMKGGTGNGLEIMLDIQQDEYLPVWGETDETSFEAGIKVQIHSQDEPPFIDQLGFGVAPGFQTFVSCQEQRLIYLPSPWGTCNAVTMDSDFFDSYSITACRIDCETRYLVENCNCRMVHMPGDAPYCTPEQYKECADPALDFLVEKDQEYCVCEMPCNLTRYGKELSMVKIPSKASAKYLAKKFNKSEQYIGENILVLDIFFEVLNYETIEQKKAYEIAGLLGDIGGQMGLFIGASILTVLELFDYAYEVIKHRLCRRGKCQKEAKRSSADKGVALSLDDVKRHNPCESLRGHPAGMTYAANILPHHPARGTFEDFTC

ASIC1a [2] = molecular target: T2, ASIC1a; test: whole-cell patch clamp in transfected CHO cells; […], pH […], Idrug/Icontrol = […]; format: cell-based; conditions: pH 6.5, read-out: whole-cell patch clamp in transfected CHO cells, 5 mM, pH 6.5, Idrug/Icontrol =
ASIC2a = molecular target: T3, ASIC2a (Rattus norvegicus, UniProt Q62962); test: whole-cell patch clamp in transfected CHO cells; […], pH […], peak Idrug/Icontrol = […]; format: cell-based; conditions: pH 5, read-out: whole-cell patch clamp in transfected CHO cells, 5 mM, pH 5.0, peak Idrug/Icontr
T3 construct: gene Asic2
T3 sequence (Q62962 1-512): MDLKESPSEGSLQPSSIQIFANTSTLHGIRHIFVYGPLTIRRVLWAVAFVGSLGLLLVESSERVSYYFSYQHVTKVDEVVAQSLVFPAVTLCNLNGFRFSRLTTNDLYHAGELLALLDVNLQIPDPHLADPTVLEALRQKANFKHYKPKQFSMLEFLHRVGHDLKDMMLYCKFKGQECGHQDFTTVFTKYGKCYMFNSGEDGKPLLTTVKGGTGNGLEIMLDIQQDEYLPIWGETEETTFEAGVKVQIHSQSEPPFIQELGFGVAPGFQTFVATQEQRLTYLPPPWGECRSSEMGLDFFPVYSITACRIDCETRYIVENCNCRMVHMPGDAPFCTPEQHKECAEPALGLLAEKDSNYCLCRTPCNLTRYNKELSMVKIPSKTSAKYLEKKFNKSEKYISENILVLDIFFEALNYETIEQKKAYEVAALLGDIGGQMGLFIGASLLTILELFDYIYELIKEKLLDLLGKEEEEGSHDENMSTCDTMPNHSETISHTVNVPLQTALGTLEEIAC

CCCC[N+](CCCC)(CCCC)CCCC [TBA, tetrabutylammonium]
activity at 1000 µM (ASIC3): 112 ± 8%

CC[N+](CC)(CC)CC [TEA, tetraethylammonium]
activity at 10000 µM (ASIC1a [1]): 70 ± 13%

CCCCC[N+](CCCCC)(CCCCC)CCCCC [TPtA, tetrapentylammonium]
remaining activity at 5000 µM (ASIC1a [2]): 41 ± 6%
activity at 5000 µM (ASIC2a): 71 ± 18%
